The subject of experiment [1] is INS1. Briefly: beta cell apoptosis inhibitors, cytokine rescue, dose response, luminescence, retest (AID 449756).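 Further: cell death triggered by IL-1 beta plus TNF-alpha plus IFN-gamma mixture; protective hits raise ATP signal compared with cytokine alone wells.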 The format is functional, cell-based. To be noted: Rattus norvegicus.
For experiment [2], the target named is T1, Heat shock factor protein 1 (Mus musculus, UniProt P38532).
T1 sequence (P38532 whole entry): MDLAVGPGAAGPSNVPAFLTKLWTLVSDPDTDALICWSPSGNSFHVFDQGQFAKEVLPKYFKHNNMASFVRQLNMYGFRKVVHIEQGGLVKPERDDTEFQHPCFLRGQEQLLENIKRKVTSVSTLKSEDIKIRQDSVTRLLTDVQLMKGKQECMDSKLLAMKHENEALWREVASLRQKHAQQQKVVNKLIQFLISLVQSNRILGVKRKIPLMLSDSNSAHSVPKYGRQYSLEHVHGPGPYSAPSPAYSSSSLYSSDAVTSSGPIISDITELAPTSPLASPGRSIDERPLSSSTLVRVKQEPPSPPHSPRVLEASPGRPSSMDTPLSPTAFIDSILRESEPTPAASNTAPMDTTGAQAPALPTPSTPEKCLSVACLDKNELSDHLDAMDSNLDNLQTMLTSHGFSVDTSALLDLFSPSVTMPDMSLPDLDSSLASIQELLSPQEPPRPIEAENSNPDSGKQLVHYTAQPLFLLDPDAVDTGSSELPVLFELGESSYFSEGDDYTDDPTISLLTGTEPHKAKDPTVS
Put plainly: HSF1 potentiators in luciferase reporter cells, confirmation, cell-based, NIH3T3, luminescence, dose retest (AID 435004).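 Further: stress induced by proteasome inhibitor MG132 added 30 min after compound; luciferase reporter driven by HSF1 response element in NIH3T3 cells; actives raise luminescence as potentiators of the MG132 stress response.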 The format is functional.

Experiment [3] concerns the target T2, Corticotropin-releasing factor receptor 2/Corticotropin-releasing factor-binding protein (Homo sapiens, UniProt P24387+Q13324).
T2 sequence (Q13324 whole entry): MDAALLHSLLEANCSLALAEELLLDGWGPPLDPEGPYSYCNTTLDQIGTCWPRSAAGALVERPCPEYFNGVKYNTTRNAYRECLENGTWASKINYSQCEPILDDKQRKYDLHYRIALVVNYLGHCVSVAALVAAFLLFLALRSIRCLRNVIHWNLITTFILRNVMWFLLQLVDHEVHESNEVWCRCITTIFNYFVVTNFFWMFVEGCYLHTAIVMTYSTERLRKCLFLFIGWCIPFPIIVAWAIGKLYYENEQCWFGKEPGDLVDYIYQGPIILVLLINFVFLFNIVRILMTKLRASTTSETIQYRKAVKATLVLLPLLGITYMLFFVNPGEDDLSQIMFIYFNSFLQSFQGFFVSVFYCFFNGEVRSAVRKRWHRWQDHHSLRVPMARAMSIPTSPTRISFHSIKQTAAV
T2 sequence (P24387 whole entry): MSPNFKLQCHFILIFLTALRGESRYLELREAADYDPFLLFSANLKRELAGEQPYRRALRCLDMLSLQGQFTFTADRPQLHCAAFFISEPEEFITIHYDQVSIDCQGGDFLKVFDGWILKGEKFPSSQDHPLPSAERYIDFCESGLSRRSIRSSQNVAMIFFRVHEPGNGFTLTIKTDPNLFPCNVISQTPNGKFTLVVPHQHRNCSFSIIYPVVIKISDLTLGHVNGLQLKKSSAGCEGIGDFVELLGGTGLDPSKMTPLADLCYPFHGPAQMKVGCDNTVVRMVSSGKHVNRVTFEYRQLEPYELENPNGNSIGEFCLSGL
Put plainly: Dose Response confirmation of uHTS hits for small molecule antagonists of the CRF-binding protein and CRF-R2 receptor complex. The format is functional. The settings on record: read-out: IC50_Mean.

In experiment [4] the target is T2, Corticotropin-releasing factor receptor 2/Corticotropin-releasing factor-binding protein. Briefly: activators of CRF receptor 2 with binding protein – uHTS hits, confirmation (AID 602473). The settings on record: read-out: EC50_Mean. The experiment is classed as functional.

Structures are written as SMILES. The source made the active and inactive calls.

As usually defined, the AC50 is the midpoint of the concentration-response curve, whichever way the signal moves.

Turning to `CCCCCc1ccc(-c2cn(CN3C(=O)c4ccccc4C3=O)nn2)cc1`, in experiment [1], the AC50 was 1.82 µM (active).
As for `Cc1ccc(=O)n(C(C(=O)NCc2ccco2)C(=O)c2ccc(F)cc2)c1` (stereo not given), the EC50 in experiment [2] is > 260 µM (inactive).
For `CCOc1ccc(CN(CCCl)CCCl)cc1C(=O)OC`, in experiment [2], the EC50 is 12.6 µM (active).
Same read-out and setting: the figure for `CC(=O)c1c(N2CCOCC2)nc2ccc(Br)cc2c1-c1ccccc1` is 124 µM (active).
On to `CCC1CCCCN1C(=O)c1cc(COc2ccc(-n3cncn3)cc2)on1` (stereo not given), for which, in experiment [1], the AC50 was 8.64 µM (active).
With `C=CCN1C(=O)NC(c2ccccc2)(C(F)(F)F)S/C1=C(\C#N)c1nnc(N2CCOCC2)n1-c1ccccc1` (stereo not given), in experiment [2], the EC50 was 22.1 µM (active).
Same read-out and setting: with `COc1ccc(N(CC(=O)NCCC2=CCCCC2)S(=O)(=O)c2ccccc2)cc1` the figure was > 260 µM (inactive).
For `COc1ccc(N2CCN(CCCNC(=O)C(=O)c3c(C)[nH]c4ccccc34)CC2)cc1`, the IC50 in experiment [3] was > 47.1 µM (inactive). Further, in experiment [4], the EC50 is > 53 µM (inactive).
For `Cc1noc(C)c1COC(=O)c1cccc(S(=O)(=O)N2c3ccccc3CC2C)c1` (stereo not given) the same measures were > 47.1 µM (inactive) and > 53 µM (inactive).
Consider `O=C1NN(c2ccccc2)C(=O)/C1=C\c1ccc2c(c1)OCO2`, for which, in experiment [2], the EC50 was > 260 µM (inactive).
For `O=C(Nc1ccccc1C(=O)N1CCOCC1)c1ccncc1`, in experiment [3], the IC50 is > 47.1 µM (inactive). The EC50 in experiment [4] is > 53 µM (inactive).
On to `Cc1cc(/C=C(/C#N)C(=O)O)c(C)n1-c1cccc2ccccc12`, for which the IC50 in experiment [3] was 6.86 µM (active). In addition, the EC50 in experiment [4] is > 53 µM (inactive).
Take `Cc1cccc(C)c1NC(=O)c1sccc1SCc1cccc(C(F)(F)F)c1`: the IC50 in experiment [3] was > 47.1 µM (inactive). For the same compound, in experiment [4], the EC50 was > 53 µM (inactive).
For the compound `C/C=C/c1c(F)c(F)c(Oc2ccc(C(=O)O)cc2)c(F)c1F`, in experiment [2], the EC50 was > 260 µM (inactive).
With `Cc1occc1C(=O)N1CCCC(N2CCN(c3cccc(C(F)(F)F)c3)CC2)C1` (stereo not given), in experiment [1], the AC50 was 111 µM (active).
Still for that read-out and setting: the figure for `CC(C)CN(C(=O)COC(=O)C12CC3CC(CC(Cl)(C3)C1)C2)c1c(N)n(Cc2ccccc2)c(=O)[nH]c1=O` is 7.15 µM (active).
On to `O=C(CSc1ccc(-c2ccncc2)nn1)N1CCN(c2ccccc2)CC1`, for which, in experiment [3], the IC50 is > 47.1 µM (inactive). In addition, in experiment [4], the EC50 is > 53 µM (inactive).
For `O=C(OCc1ccc2c(c1)OCO2)c1ccc(S(=O)(=O)N2CCCC2)cc1` the same measures were > 47.1 µM (inactive) and > 53 µM (inactive).
With `Fc1ccccc1N=C(S)N1CCN(c2ccccn2)CC1`, in experiment [2], the EC50 is > 260 µM (inactive).
Turning to `O=C(Cc1nc2ccccc2nc1O)c1ccc(Cl)cc1`, the EC50 in experiment [2] is 198 µM (inconclusive).
Regarding `O=C(c1ccc(Br)cc1)N1CCCC(c2nc(-c3cccs3)no2)C1` (stereo not given), the EC50 in experiment [2] was > 260 µM (inactive).
`COc1ccc(N(CC(=O)NCCSc2ccccn2)S(=O)(=O)c2ccc(C)cc2)cc1OC`: in experiment [3], the IC50 was > 47.1 µM (inactive). Moreover, the EC50 in experiment [4] was > 53 µM (inactive).
`COc1ccc(C(=O)NCCS(=O)(=O)N(C)C2CCCCC2)cc1`: the IC50 in experiment [3] is > 47.1 µM (inactive). Further, in experiment [4], the EC50 is > 53 µM (inactive).
In the case of `O=C1CCC(/C=C/c2ccccc2)=NN1`, the EC50 in experiment [2] was > 260 µM (inactive).
`COCCn1c(SCC(=O)NC2CCCCC2)nc2c(c1=O)SCC2`: the EC50 in experiment [2] was > 260 µM (inactive).
In the case of `COCC(=O)N(C)[C@H]1C[C@H]2c3cc(N4CCN(C)CC4)ccc3CCN2C(=O)[C@H]1[C@H](C)O`, the IC50 in experiment [3] is > 47.1 µM (inactive). Besides, the EC50 in experiment [4] is > 53 µM (inactive).
With `Nc1c(Cl)ncnc1N/N=C/c1ccccn1`, the AC50 in experiment [1] is 0.521 µM (active).
For the compound `O=C(COc1ccccc1)NCc1ccco1`, in experiment [3], the IC50 was > 47.1 µM (inactive). In experiment [4], the EC50 is > 53 µM (inactive).
Regarding `COc1cccc(/N=C/C2=C(O)OC3(CCCCC3)OC2=O)c1`, the EC50 in experiment [2] is > 260 µM (inconclusive).

The values are drawn from ChEMBL document CHEMBL1201862, “PubChem BioAssay data set” (2004).
